The molecules below were run against T1, human TLR8 (Homo sapiens, UniProt Q9NR97) (assay: HEK293-Blue-hTLR-8 cells assay (SEAP reporter, R848 stimulation)). Settings: HEK293-Blue-hTLR8 cells, R848, 20 hrs; read-out: HEK/hTLR8 IC50.
T1 construct: host or cells: HEK293 (HEK-Blue hTLR8)
T1 sequence (Q9NR97 27-1041): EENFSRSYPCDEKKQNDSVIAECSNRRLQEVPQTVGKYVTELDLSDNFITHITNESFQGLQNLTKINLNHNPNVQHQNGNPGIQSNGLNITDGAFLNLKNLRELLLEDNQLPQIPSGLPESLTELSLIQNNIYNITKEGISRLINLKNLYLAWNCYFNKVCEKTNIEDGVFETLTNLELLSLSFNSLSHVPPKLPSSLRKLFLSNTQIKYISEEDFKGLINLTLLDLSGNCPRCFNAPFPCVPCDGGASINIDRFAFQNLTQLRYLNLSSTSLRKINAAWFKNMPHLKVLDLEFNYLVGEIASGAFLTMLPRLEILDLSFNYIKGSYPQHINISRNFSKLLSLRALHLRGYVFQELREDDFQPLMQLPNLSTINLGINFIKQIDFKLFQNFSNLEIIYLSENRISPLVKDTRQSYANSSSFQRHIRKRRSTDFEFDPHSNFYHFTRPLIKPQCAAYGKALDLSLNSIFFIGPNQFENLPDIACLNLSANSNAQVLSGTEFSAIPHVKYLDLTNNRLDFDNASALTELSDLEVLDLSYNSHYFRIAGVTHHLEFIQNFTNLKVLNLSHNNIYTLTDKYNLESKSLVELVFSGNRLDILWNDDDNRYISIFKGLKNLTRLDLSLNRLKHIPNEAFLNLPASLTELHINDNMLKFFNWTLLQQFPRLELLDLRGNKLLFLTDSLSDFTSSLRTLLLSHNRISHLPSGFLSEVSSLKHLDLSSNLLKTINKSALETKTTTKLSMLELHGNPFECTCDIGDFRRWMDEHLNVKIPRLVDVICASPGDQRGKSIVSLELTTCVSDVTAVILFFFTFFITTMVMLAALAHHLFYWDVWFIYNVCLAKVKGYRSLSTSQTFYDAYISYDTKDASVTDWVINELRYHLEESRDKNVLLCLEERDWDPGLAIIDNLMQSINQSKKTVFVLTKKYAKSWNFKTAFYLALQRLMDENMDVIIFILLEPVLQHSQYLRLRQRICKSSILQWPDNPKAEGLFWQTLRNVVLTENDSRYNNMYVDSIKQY
Type: cell-based
From the text: HEK293-Blue-hTLR-8 Cells Assay:
A stable HEK293-Blue-hTLR-8 cell line was purchased from InvivoGen (Cat. #: hkb-ht1r8, San Diego, Calif., USA). These cells were originally designed for studying the stimulation of human TLR8 by monitoring the activation of NF-κB. A SEAP (secreted embryonic alkaline phosphatase) reporter gene was placed under the control of the IFN-β minimal promoter fused to five NF-κB and AP-1-binding sites. The SEAP was induced by activating NF-κB and AP-1 via stimulating HEK-Blue hTLR8 cells with TLR8 ligands. Therefore the reporter expression was declined by TLR8 antagonist under the stimulation of a ligand, such as R848, for incubation of 20 hrs. The cell culture supernatant SEAP reporter activity was determined using QUANTI-Blue™ kit (Cat. #: rep-qb1, Invivogen, San Diego, Ca, USA) at a wavelength of 640 nm, a detection medium that turns purple or blue in the presence of alkaline phosphatase.
HEK293-Blue-hTLR8 cells were incubated at a density of 250,000˜450,000 cells/mL in a volume of 170 μL in a 96-well plate in Dulbecco's Modified Eagle's medium (DMEM) containing 4.5 g/L glucose, 50 U/mL penicillin, […], […], 2 mM L-glutamine, 10% (v/v) heat-inactivated fetal bovine serum with addition of 20 μL test compound in a serial dilution in the presence of final DMSO at 1% and 10 μL of 60 uM R848 in above DMEM, perform incubation under 37° C. in a CO2 incubator for 20 hrs. Then 20 μL of the supernatant from each well was incubated with 180 μL Quanti-blue substrate solution at 37° C. for 2 hrs and the absorbance was read at 620˜655 nm using a spectrophotometer. The signaling pathway that TLR8 activation leads to downstream NF-κB activation has been widely accepted, and therefore similar reporter assay was modified for evaluating TLR8 antagonist.

`Cc1cc(N2C[C@@H](N)[C@@H](F)C2)nc(N2CCN(C[C@H]3CN(c4ccc(C#N)c5nccnc45)C[C@@H](C)O3)CC2)n1` [Example 115, 8-[(2S,6R)-2-[[4-[4-[(3R,4S)-3-amino-4-fluoro-pyrrolidin-1-yl]-6-methyl-pyrimidin-2-yl]piperazin-1-yl]methyl]-6-methyl-morpholin-4-yl]quinoxaline-5-carbonitrile] and `Cc1cc(N2CC(N)C2)nc(N2CCN(C[C@H]3CN(c4ccc(C#N)c5nccnc45)C[C@@H](C)O3)CC2)n1` [Example 123, 8-[(2S,6R)-2-[[4-[4-(3-aminoazetidin-1-yl)-6-methyl-pyrimidin-2-yl]piperazin-1-yl]methyl]-6-methyl-morpholin-4-yl]quinoxaline-5-carbonitrile] are the same in IC50: 1 nM for the first, 1 nM for the second.

Compared with `CO[C@@H]1CN(c2ccc(N3CCN(C[C@H]4CN(c5ccc(C#N)n6ncc(F)c56)C[C@@H](C)O4)CC3)cn2)C[C@H]1N` [Example 166, 4-[(2S,6R)-2-[[4-[6-[(3R,4R)-3-amino-4-methoxy-pyrrolidin-1-yl]-3-pyridyl]piperazin-1-yl]methyl]-6-methyl-morpholin-4-yl]-3-fluoro-pyrazolo[1,5-a]pyridine-7-carbonitrile], `C[C@@H]1CN(c2ccc(C#N)n3ncc(F)c23)C[C@H](CN2CCN(c3ccc(N4CC(C)(N)C4)nc3)CC2)O1` [Example 154, 4-[(2S,6R)-2-[[4-[6-(3-amino-3-methyl-azetidin-1-yl)-3-pyridyl]piperazin-1-yl]methyl]-6-methyl-morpholin-4-yl]-3-fluoro-pyrazolo[1,5-a]pyridine-7-carbonitrile] is 1.6-fold higher in IC50: 31 nM for the first, 50 nM for the second.

First: [2H]c1ccc2c(N3C[C@H](CN4CCN(c5nc(C)cc(N6C[C@H](OC)[C@@H](N)C6)n5)CC4)O[C@H](C)C3)ccc(C#N)c2n1 [Example 134, 5-[(2S,6R)-2-[[4-[4-[(3S,4S)-3-amino-4-methoxy-pyrrolidin-1-yl]-6-methyl-pyrimidin-2-yl]piperazin-1-yl]methyl]-6-methyl-morpholin-4-yl]-2-deuterio-quinoline-8-carbonitrile]
Second: COC1CCN(c2nccc(N3CCN(C[C@H]4CN(c5ccc(C#N)c6ncccc56)C[C@@H](C)O4)CC3)n2)CC1N (stereo partly drawn) [Example 109, 5-[(2S,6R)-2-[[4-[2-(3-amino-4-methoxy-1-piperidyl)pyrimidin-4-yl]piperazin-1-yl]methyl]-6-methyl-morpholin-4-yl]quinoline-8-carbonitrile]
The IC50 of the first is 2-fold lower: 1 nM for the first, 2 nM for the second. The first is the more potent here.

`C[C@@H]1CN(c2ccc(C#N)c3nccnc23)C[C@H](CN2CCN(c3ccnc(N4C[C@H](N)[C@@H](F)C4)n3)CC2)O1` [Example 107, 8-[(2S,6R)-2-[[4-[2-[(3S,4S)-3-amino-4-fluoro-pyrrolidin-1-yl]pyrimidin-4-yl]piperazin-1-yl]methyl]-6-methyl-morpholin-4-yl]quinoxaline-5-carbonitrile] and `C[C@@H]1CN(c2ccc(C#N)c3nccnc23)C[C@H](CN2CCN(c3nccc(N4CC(N)C4)n3)CC2)O1` [Example 118, 8-[(2S,6R)-2-[[4-[4-(3-aminoazetidin-1-yl)pyrimidin-2-yl]piperazin-1-yl]methyl]-6-methyl-morpholin-4-yl]quinoxaline-5-carbonitrile] are the same in IC50: 1 nM for the first, 1 nM for the second.

Going from `[2H]c1ccc2c(N3C[C@H](CN4CC(c5cccc(N6CC(C)(N)C6)n5)C4)O[C@H](C)C3)ccc(C#N)c2n1` [Example 159, 5-[(2S,6R)-2-[[3-[6-(3-amino-3-methyl-azetidin-1-yl)-2-pyridyl]azetidin-1-yl]methyl]-6-methyl-morpholin-4-yl]-2-deuterio-quinoline-8-carbonitrile] to `[2H]c1ccc2c(N3C[C@H](CN4CC(c5cnc(N6CC(C)(N)C6)cc5C)C4)O[C@H](C)C3)ccc(C#N)c2n1` [Example 145, 5-[(2S,6R)-2-[[3-[6-(3-amino-3-methyl-azetidin-1-yl)-4-methyl-3-pyridyl]azetidin-1-yl]methyl]-6-methyl-morpholin-4-yl]-2-deuterio-quinoline-8-carbonitrile], the IC50 falls from 52 nM to 14 nM (3.7-fold).

Compared with `Cc1cc(N2C[C@@H](N)[C@](C)(O)C2)nc(N2CCN(C[C@H]3CN(c4ccc(C#N)c5nccnc45)C[C@@H](C)O3)CC2)n1` [Example 125, 8-[(2S,6R)-2-[[4-[4-[(3R,4R)-4-amino-3-hydroxy-3-methyl-pyrrolidin-1-yl]-6-methyl-pyrimidin-2-yl]piperazin-1-yl]methyl]-6-methyl-morpholin-4-yl]quinoxaline-5-carbonitrile], `Cc1cc(N2CCNCC2)nc(N2CCN(C[C@H]3CN(c4ccc(C#N)c5nccnc45)C[C@@H](C)O3)CC2)n1` [Example 114, 8-[(2R,6S)-2-methyl-6-[[4-(4-methyl-6-piperazin-1-yl-pyrimidin-2-yl)piperazin-1-yl]methyl]morpholin-4-yl]quinoxaline-5-carbonitrile] is 2-fold lower in IC50: 2 nM for the first, 1 nM for the second. The second is the more potent here.

Going from `C[C@@H]1CN(c2ccc(C#N)n3nccc23)C[C@H](CN2CC(c3ccc(N4CC(C)(N)C4)cc3)C2)O1` [Example 163, 4-[(2S,6R)-2-[[3-[4-(3-amino-3-methyl-azetidin-1-yl)phenyl]azetidin-1-yl]methyl]-6-methyl-morpholin-4-yl]pyrazolo[1,5-a]pyridine-7-carbonitrile] to `C[C@@H]1CN(c2ccc(C#N)n3nccc23)C[C@H](CN2CC(c3ccc(N4CC(C)(N)C4)nc3)C2)O1` [Example 157, 4-[(2S,6R)-2-[[3-[6-(3-amino-3-methyl-azetidin-1-yl)-3-pyridyl]azetidin-1-yl]methyl]-6-methyl-morpholin-4-yl]pyrazolo[1,5-a]pyridine-7-carbonitrile], the IC50 rises from 68 nM to 118 nM (1.7-fold). The first is the more potent here.

First: C[C@@H]1CN(c2ccc(C#N)c3ncccc23)C[C@H](CN2CCN(c3ncc(F)c(N4CCNCC4)n3)CC2)O1 [Example 94, 5-[(2S,6R)-2-[[4-(5-fluoro-4-piperazin-1-yl-pyrimidin-2-yl)piperazin-1-yl]methyl]-6-methyl-morpholin-4-yl]quinoline-8-carbonitrile]
Second: C[C@@H]1CN(c2ccc(C#N)c3ncccc23)C[C@H](CN2CCN(c3ccnc(N4C[C@@H](N)[C@@H](F)C4)n3)CC2)O1 [Example 101, 5-[(2S,6R)-2-[[4-[2-[(3R,4S)-3-amino-4-fluoro-pyrrolidin-1-yl]pyrimidin-4-yl]piperazin-1-yl]methyl]-6-methyl-morpholin-4-yl]quinoline-8-carbonitrile]
The IC50 of the first is 1.5-fold higher: 6 nM for the first, 4 nM for the second.

Compared with `Cc1ccc(N2C[C@H](CN3CCN(c4ccnc(N5C[C@H]6NCCO[C@@H]6C5)n4)CC3)O[C@H](C)C2)c2nccnc12` [Example 129, (4aR,7aR)-6-[4-[4-[[(2S,6R)-6-methyl-4-(8-methylquinoxalin-5-yl)morpholin-2-yl]methyl]piperazin-1-yl]pyrimidin-2-yl]-3,4,4a,5,7,7a-hexahydro-2H-pyrrolo[3,4-b][1,4]oxazine], `C[C@@H]1CN(c2ccc(C#N)c3ncccc23)C[C@H](CN2CCN(c3ccc(CN)cc3)CC2)O1` [Example 5, 5-[(2S,6R)-2-[[4-[4-(aminomethyl)phenyl]piperazin-1-yl]methyl]-6-methyl-morpholin-4-yl]quinoline-8-carbonitrile] is 4.7-fold higher in IC50: 7 nM for the first, 33 nM for the second. The first is the more potent here.
